“Also recorded” adds a separate entry of the source.
Key:
[1] = tested on: IL-6 and TNFAIP2; experiment: IL-6 and TNFAIP2 induction in AD patient-derived astrocytes; type: cell-based, human; conditions: IL1-β
[2] = tested on: IκBα; experiment: Immunoblot of IκBα and pIκB S32 in inflamed astrocytes; type: cell-based, human; conditions: 6 hours
Experimental: Western blotting. For drug treatment assays, cells were treated with vehicle (DMSO) or 20 μM compound and stimulated with IL1B 10 ng/mL for 1 h, 6 h, or 24 h. Cells were dissociated with 1:1 Accutase:papain for 3 min at rt, pelleted for 5 min at 800 g, and washed twice with cold DPBS. Pellets were lysed with RIPA buffer (Sigma R^0278) supplemented with Halt protease inhibitor cocktail (Thermo Fisher 78445) and clarified by centrifugation (16,000 g, 10 min, 4° C.). Protein concentration was determined by BCA assay (Thermo Fisher). Proteins were denatured in 1×LDS Buffer and 2.5% beta-mercaptoethanol (Sigma) for 10 min at 70° C., separated on Bolt 4-12% Bis-Tris Plus polyacrylamide gels (Thermo Fisher), transferred to PVDF membranes using the iBlot 2 Dry Blotting System, and blocked with 0.1% casein-PBS (Bio-Rad) for 1 h at room temperature. The blots were incubated with primary antibodies overnight at 4° C. in PBS containing 0.1% casein and 0.2% Tween-20. […] The blots were imaged using the Odyssey CLx imaging system and blots were analyzed on the ImageStudio software (LI-COR).

[3] = tested on: CK2α1 and CK2α2; experiment: CK2 protein levels by Western in IL1-β-stimulated astrocytes; type: cell-based, human; conditions: after 5 hours
Experimental: Western blotting. For drug treatment assays, cells were treated with vehicle (DMSO) or 20 μM compound and stimulated with IL1B 10 ng/mL for 1 h, 6 h, or 24 h. Cells were dissociated with 1:1 Accutase:papain for 3 min at rt, pelleted for 5 min at 800 g, and washed twice with cold DPBS. […] Protein concentration was determined by BCA assay (Thermo Fisher). […] The blots were incubated with primary antibodies overnight at 4° C. in PBS containing 0.1% casein and 0.2% Tween-20. […] The membranes were washed 5× with 0.1% PBS-Tween20 (PBST) and incubated with secondary antibodies (1:20,000) for 1 h at rt in PBS with 0.1% casein, 0.2% Tween20, and 0.1% SDS. […] The blots were then washed 4× with PBST and 1× with DPBS. The blots were imaged using the Odyssey CLx imaging system and blots were analyzed on the ImageStudio software (LI-COR).

[4] = tested on: IL-6 secretion; experiment: IL-6 secretion assay in astrocytes (Promega Lumit IL-6 kit); type: cell-based, human; conditions: astrocytes and microglia; FIG. 2D, FIG. 1C
Procedure, shortened: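 Human astrocytes (HCAs), 20,000 per well, cultured 2-3 days, then stimulated with 10 ng/mL IL1B alongside compound dilution series. IL-6 secreted over 5 h quantified by Lumit IL-6 luminescent immunoassay.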

[5] = tested on: IL-6, IL-8, TNF-α, and MCP-1; experiment: Flow cytometry assay of cytokine production in HCA; type: cell-based, human; conditions: 20 μM compound, 10 ng/mL IL1-β
Experimental: Flow cytometry. For each well of HCA in a 6-well plate, 2 mL of fresh media with GolgiPLUG (BD #555029, 1:1000) and GolgiSTOP (BD #554724, 1:1000) with 20 μM compound or vehicle (DMSO) and IL1b 10 ng/mL or DPBS was added. The cells were incubated for 5 h at 37° C. Cells were collected with TrypLE and plated into a 96-well V-bottom plate for staining. The plate was centrifuged for 5 min, 1300 rpm, 4° C. to pellet cells, which were subsequently resuspended in 100 μL DPBS with 1 μL Zombie Violet (Biolegend #4231 13) and 5 μL Human Trustain FC block (Biolegend #422302) per well for 15 min at room temperature in the dark. The plate was centrifuged, supernatant was aspirated, and the cells were washed with 100 μL/well DPBS. Cells were fixed with 100 μL/well of Cytofix/Cytoperm (BD) for 20 min at 4° C. The plate was centrifuged, supernatant was aspirated, and cells were resuspended in 100 μL Permwash (BD) and incubated for 15 min at 4° C. The plate was centrifuged, supernatant was aspirated, and cells were incubated with 100 μL/well of Ab mix or isotype mix in Permwash (see below) for 20 min at 4° C., followed by centrifugation and 2× PermWash washes. The cells were resuspended in 100 μL DPBS and transferred to FACS tubes containing 200 ul of PBS (total volume per tube 300 μL) for analysis on FACS Analyzers (LSRII or Fortessa).
A flow cytometry-based assay was used to assess the anti-inflammatory activity of several natural flavonoid compounds (FIG. 1A) and build corresponding structure-activity relationships. Primary human cerebellar astrocytes (HCA) were co-treated with 20 μM of each compound or vehicle (DMSO), 10 ng/mL IL1-β, and a protein transport inhibitor for 6 hours, and then processed for intracellular staining of pro-inflammatory cytokines IL-6, IL-8, TNF-α, and MCP-1. The presence of a C2-C3 double bond was the predominant determining factor for anti-inflammatory activity. […] There was no cytotoxicity associated with flavone treatment (FIG. 1E).

[6] = tested on: tau phosphorylation; experiment: Tau phosphorylation in induced neurons (iNs); type: cell-based; conditions: FIG. 14

COc1cc(-c2cc(=O)c3c(O)cc(O)cc3o2)ccc1O [CHR, Chrysoeriol]
Hyperinflammatory phenotype (IL-6 and TNFAIP2 induction) [1]: mitigated | IκBα levels [2]: dose-dependently boosted | phosphorylated IκB S32 [2]: remained unchanged | CK2α1 and CK2α2 levels [3]: reduced to baseline | Anti-inflammatory effects, dose dependence [4]: dose-dependent | IL1-β-induced IL-6, IL-8, TNF-α, MCP-1 cytokine upregulation [5]: active; also recorded: strong suppressive activity | Tau phosphorylation [6]: reduces

From US20260199350A1, “FLAVONES, QUINOLINONES, QUINAZOLINONES, AND AURONES, AND USES IN CK2-MEDIATED DISEASES” (Salk Institute for Biological Studies, priority 2022, published 2026)
